The structures appear in SMILES notation. Where a name gives a salt, the structure may show the parent alone.

In the first data set the target is T1, norepinephrine transporters (NET) (Rattus norvegicus, UniProt Q9WTR4).
T1 construct: Whole rat brains (minus cerebellum) are homogenized; from tissue; host or cells: rat whole brain minus cerebellum, membranes
T1 sequence (Q9WTR4 1-597): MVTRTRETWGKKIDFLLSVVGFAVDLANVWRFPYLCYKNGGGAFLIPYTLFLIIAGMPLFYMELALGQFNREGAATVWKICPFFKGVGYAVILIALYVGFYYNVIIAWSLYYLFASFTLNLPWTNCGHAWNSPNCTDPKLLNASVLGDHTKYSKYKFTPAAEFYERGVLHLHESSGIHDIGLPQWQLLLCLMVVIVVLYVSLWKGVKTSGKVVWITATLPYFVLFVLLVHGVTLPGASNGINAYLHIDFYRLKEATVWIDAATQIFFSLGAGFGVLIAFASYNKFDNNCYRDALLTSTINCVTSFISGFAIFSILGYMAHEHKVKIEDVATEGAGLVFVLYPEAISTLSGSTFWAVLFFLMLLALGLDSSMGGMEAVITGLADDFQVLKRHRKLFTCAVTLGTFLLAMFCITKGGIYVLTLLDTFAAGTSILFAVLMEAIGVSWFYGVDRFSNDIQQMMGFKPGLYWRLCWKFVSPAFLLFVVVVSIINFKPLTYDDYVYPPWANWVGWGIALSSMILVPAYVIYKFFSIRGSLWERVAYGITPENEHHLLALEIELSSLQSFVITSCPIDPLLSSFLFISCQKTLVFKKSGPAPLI
Nature of the data set: NET binding, displacement of [3H]nisoxetine in rat brain membranes. The settings on record: [3H]nisoxetine displacement, rat brain membranes; Ki by Cheng-Prusoff; read-out: NET. How it is done:
(§1) Binding of analogs at norepinephrine transporters (NET) was determined by displacement of [^3H]nisoxetine binding. […] The membranes are resuspended in nisoxetine assay buffer (300 mM NaCl, 5 mM KCl, 50 mM Tris-HCl, pH 7.4) and centrifuged again before final resuspension in volumes of buffer. Assay tubes contain 750 μl of brain membranes, [^3H]nisoxetine (0.7 nM) together with unlabeled drugs dissolved in nisoxetine assay buffer to a final volume of 1 ml. Tubes are incubated for 40 min at 25° C., and the reaction is terminated by rapid filtration with 3×4 mL of cold Tris buffer through Whatman GF/B glass fiber filters which have been pre-soaked in Tris buffer containing 0.1% BSA for at least 1 h. Non-specific binding is determined in the presence of 1 μM desipramine. In [^3H]citalopram and [^3H]nisoxetine binding assays, radioactivity is determined by liquid scintillation spectrophotometry (efficiency: 50%) after eluting filters overnight in 5 mL of Ecolite scintillation fluid (ICN). IC50 values are calculated from displacement curves using 7-10 concentrations of unlabeled analogs. […] For [^3H]paroxetine and [^3H]nisoxetine binding assays, Ki values are calculated using the Cheng-Prusoff equation.
(In general: In a radioligand displacement assay an active substance lowers the binding of a labelled ligand.)
Regarding `CNC[C@H]1C[C@@]1(C(=O)OC)c1ccc2ccccc2c1` [HD-330, (1S,2S)-methyl 2-((methylamino)methyl)-1-(naphthalen-2-yl)cyclopropanecarboxylate], the Ki worked out at 0.0164 ± 0.00052 µM.

`CNC[C@H]1C[C@@]1(C(=O)OC)c1ccc(Cl)c(Cl)c1` [HD-326, (1S,2S)-methyl 1-(3,4-dichlorophenyl)-2-((methylamino)methyl)cyclopropanecarboxylate]: the Ki is 0.00811 ± 0.0008 µM.

Regarding `CNC[C@@H]1C[C@]1(C(=O)OC)c1ccc2ccccc2c1` [HD-331, (1R,2R)-methyl 2-((methylamino)methyl)-1-(naphthalen-2-yl)cyclopropanecarboxylate], the Ki came to 0.0104 ± 0.00089 µM.

As for `CNCC1CC1(C(=O)OC)c1ccc2ccccc2c1` (racemic) [HD-287, Methyl 2-((methylamino)methyl)-1-(naphthalen-2-yl)cyclopropanecarboxylate hydrochloride], the Ki amounted to 0.00349 ± 0.00064 µM.

`CNCC1CC1(C(=O)OC)c1ccccc1` (racemic) [HD-284, Methyl 2-((methylamino)methyl)-1-phenylcyclopropanecarboxylate]: the Ki came to 0.152 ± 0.065 µM.

For `CNCC1CC1(C(=O)OC)c1ccc(OC)c(OC)c1` (racemic) [HD-289, Methyl 1-(3,4-dimethoxyphenyl)-2-((methylamino)methyl)cyclopropanecarboxylate hydrochloride], the Ki was found to be 0.00862 ± 0.00071 µM.

Take `CNCC1CC1(C(=O)OC)c1ccc(Cl)c(Cl)c1` (racemic) [HD-288, Methyl 1-(3,4-dichlorophenyl)-2-((methylamino)methyl)cyclopropanecarboxylate]: the Ki was 0.0008 ± 2e-05 µM.

As to `CNC[C@@H]1C[C@]1(C(=O)OC)c1ccc(Br)cc1` [HD-325, (1R,2R)-methyl 1-(4-bromophenyl)-2-((methylamino)methyl)cyclopropanecarboxylate], the Ki was 0.00249 ± 7e-05 µM.

The target of another data set is T2, 5-HT transport (SERT) sites (Rattus norvegicus, UniProt P31652).
T2 construct: Tissue is obtained from frozen rat brains as described above; from tissue; host or cells: rat frontal cortex membranes (frozen rat brains)
T2 sequence (P31652 whole entry): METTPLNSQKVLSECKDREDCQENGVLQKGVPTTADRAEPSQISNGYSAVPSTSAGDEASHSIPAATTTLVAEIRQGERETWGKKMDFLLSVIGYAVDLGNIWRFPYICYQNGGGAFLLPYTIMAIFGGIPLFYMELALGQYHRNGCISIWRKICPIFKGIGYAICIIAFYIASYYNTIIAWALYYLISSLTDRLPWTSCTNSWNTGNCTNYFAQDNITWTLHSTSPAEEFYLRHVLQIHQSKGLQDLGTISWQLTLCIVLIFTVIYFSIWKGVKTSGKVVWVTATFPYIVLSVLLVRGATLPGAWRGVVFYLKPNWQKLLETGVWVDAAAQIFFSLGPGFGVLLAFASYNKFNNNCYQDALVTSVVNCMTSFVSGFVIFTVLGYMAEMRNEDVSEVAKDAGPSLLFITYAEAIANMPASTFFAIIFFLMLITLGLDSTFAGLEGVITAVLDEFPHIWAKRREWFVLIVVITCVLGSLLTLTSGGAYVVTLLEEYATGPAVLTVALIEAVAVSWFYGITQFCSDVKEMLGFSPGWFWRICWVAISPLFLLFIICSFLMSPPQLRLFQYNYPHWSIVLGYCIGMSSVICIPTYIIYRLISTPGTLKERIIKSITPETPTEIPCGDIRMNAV
Put plainly: SERT binding, displacement of [3H]citalopram in rat frontal cortex membranes.
Settings: not given
How it is done:
Affinities of analogs at 5-HT transport (SERT) sites are determined by displacement of [^3H] citalopram binding in membranes from rat frontal cortex. […] Assay tubes contain 50 mg (original wet weight) of membranes, 0.4 nM [^3H]citalopram, and various concentrations of unlabeled drugs dissolved in citalopram assay buffer in a final volume of 2 ml. Tubes are incubated for 60 min at 25° C., and the reaction is terminated by rapid filtration with 3×4 mL of cold Tris buffer through Whatman GF/B glass fiber filters pre-soaked in Tris buffer containing 0.1% BSA for at least 1 h. Non-specific binding is determined in the presence of 10 μM fluoxetine.
as §1
`CNC[C@H]1C[C@@]1(C(=O)OC)c1ccc2ccccc2c1` [HD-330, (1S,2S)-methyl 2-((methylamino)methyl)-1-(naphthalen-2-yl)cyclopropanecarboxylate] yielded a Ki of 0.027 ± 0.0034 µM.

As for `CNC[C@@H]1C[C@]1(C(=O)OC)c1ccc2ccccc2c1` [HD-331, (1R,2R)-methyl 2-((methylamino)methyl)-1-(naphthalen-2-yl)cyclopropanecarboxylate], the Ki was determined as 0.015 ± 0.0028 µM.

Take `CNCC1CC1(C(=O)OC)c1ccc2ccccc2c1` (racemic) [HD-287, Methyl 2-((methylamino)methyl)-1-(naphthalen-2-yl)cyclopropanecarboxylate hydrochloride]: the Ki was found to be 0.00658 ± 0.00071 µM.

Staying with this data set, now noted: [3H]citalopram displacement, rat frontal cortex membranes; Ki by Cheng-Prusoff; read-out: SERT.
`CNC[C@H]1C[C@@]1(C(=O)OC)c1ccc(Cl)c(Cl)c1` [HD-326, (1S,2S)-methyl 1-(3,4-dichlorophenyl)-2-((methylamino)methyl)cyclopropanecarboxylate]: the Ki stood at 0.0405 ± 0.0043 µM.

On to `CNCC1CC1(C(=O)OC)c1ccccc1` (racemic) [HD-284, Methyl 2-((methylamino)methyl)-1-phenylcyclopropanecarboxylate], for which the Ki worked out at 0.157 ± 0.0048 µM.

With `CNCC1CC1(C(=O)OC)c1ccc(OC)c(OC)c1` (racemic) [HD-289, Methyl 1-(3,4-dimethoxyphenyl)-2-((methylamino)methyl)cyclopropanecarboxylate hydrochloride], the Ki amounted to 0.106 ± 0.021 µM.

For the compound `CNCC1CC1(C(=O)OC)c1ccc(Cl)c(Cl)c1` (racemic) [HD-288, Methyl 1-(3,4-dichlorophenyl)-2-((methylamino)methyl)cyclopropanecarboxylate], the Ki is 0.0056 ± 0.00039 µM.

As to `CNC[C@@H]1C[C@]1(C(=O)OC)c1ccc(Br)cc1` [HD-325, (1R,2R)-methyl 1-(4-bromophenyl)-2-((methylamino)methyl)cyclopropanecarboxylate], the Ki came out at 0.047 ± 0.0029 µM.

The target of the next data set is T3, dopamine transport (DAT) sites (Rattus norvegicus, UniProt P23977).
T3 construct: from tissue; host or cells: Sprague-Dawley rat striatum membranes
T3 sequence (P23977 whole entry): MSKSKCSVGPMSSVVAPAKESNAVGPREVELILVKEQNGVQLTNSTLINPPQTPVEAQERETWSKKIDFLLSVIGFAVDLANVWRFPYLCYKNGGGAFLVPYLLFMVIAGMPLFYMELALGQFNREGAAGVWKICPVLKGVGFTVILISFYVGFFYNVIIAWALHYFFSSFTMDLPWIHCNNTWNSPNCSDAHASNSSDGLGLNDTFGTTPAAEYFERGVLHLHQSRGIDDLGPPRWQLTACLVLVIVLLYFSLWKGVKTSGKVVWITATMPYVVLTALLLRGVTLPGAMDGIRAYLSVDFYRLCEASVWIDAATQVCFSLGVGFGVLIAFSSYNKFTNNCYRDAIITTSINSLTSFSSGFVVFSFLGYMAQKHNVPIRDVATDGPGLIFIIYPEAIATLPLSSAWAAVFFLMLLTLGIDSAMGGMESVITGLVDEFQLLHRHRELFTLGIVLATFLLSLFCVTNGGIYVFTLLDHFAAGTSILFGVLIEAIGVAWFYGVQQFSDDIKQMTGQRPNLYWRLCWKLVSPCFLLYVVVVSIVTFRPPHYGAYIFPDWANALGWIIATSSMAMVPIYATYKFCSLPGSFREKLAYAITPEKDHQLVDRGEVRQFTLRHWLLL
Put plainly: DAT binding, displacement of [125I]RTI-55 in rat striatum membranes.
Settings: not given
The protocol:
Frozen brains from Sprague-Dawley rats are obtained commercially and striata are dissected on ice. […] Tubes are incubated for 50 min at 25° C., and the reaction is terminated by rapid filtration with 3-5 ml of cold Tris buffer through Whatman GF/B glass fiber filters pre-soaked in Tris buffer containing 0.1% BSA for at least 1 h. Non-specific binding is determined in the presence of 1 μMWF-23. […]
In the case of `CNCC1CC1(C(=O)OC)c1ccc2ccccc2c1` (racemic) [HD-287, Methyl 2-((methylamino)methyl)-1-(naphthalen-2-yl)cyclopropanecarboxylate hydrochloride], the IC50 came to 0.177 ± 0.044 µM.

The same data set, now with this note: [125I]RTI-55 displacement, rat striatum membranes; reported as IC50; read-out: DAT.
`CNC[C@H]1C[C@@]1(C(=O)OC)c1ccc2ccccc2c1` [HD-330, (1S,2S)-methyl 2-((methylamino)methyl)-1-(naphthalen-2-yl)cyclopropanecarboxylate]: the IC50 worked out at 0.313 ± 0.055 µM.

With `CNC[C@@H]1C[C@]1(C(=O)OC)c1ccc2ccccc2c1` [HD-331, (1R,2R)-methyl 2-((methylamino)methyl)-1-(naphthalen-2-yl)cyclopropanecarboxylate], the IC50 stood at 0.32 ± 0.051 µM.

Consider `CNCC1CC1(C(=O)OC)c1ccccc1` (racemic) [HD-284, Methyl 2-((methylamino)methyl)-1-phenylcyclopropanecarboxylate], for which the IC50 was 1.78 ± 0.087 µM.

For the compound `CNCC1CC1(C(=O)OC)c1ccc(OC)c(OC)c1` (racemic) [HD-289, Methyl 1-(3,4-dimethoxyphenyl)-2-((methylamino)methyl)cyclopropanecarboxylate hydrochloride], the IC50 stood at 1.36 ± 0.198 µM.

Consider `CNC[C@@H]1C[C@]1(C(=O)OC)c1ccc(Br)cc1` [HD-325, (1R,2R)-methyl 1-(4-bromophenyl)-2-((methylamino)methyl)cyclopropanecarboxylate], for which the IC50 was 0.333 ± 0.079 µM.

Tested on in another data set: not listed separately
Nature of the data set: Log-P (Table 1). In kind it is physicochemical.
Settings: not given
`CNC[C@H]1C[C@@]1(C(=O)OC)c1ccc2ccccc2c1` [HD-330, (1S,2S)-methyl 2-((methylamino)methyl)-1-(naphthalen-2-yl)cyclopropanecarboxylate] yielded a Log-P of 2.82.

With `CNC[C@H]1C[C@@]1(C(=O)OC)c1ccc(Cl)c(Cl)c1` [HD-326, (1S,2S)-methyl 1-(3,4-dichlorophenyl)-2-((methylamino)methyl)cyclopropanecarboxylate], the Log-P came to 2.95.

In the case of `CNC[C@@H]1C[C@]1(C(=O)OC)c1ccc2ccccc2c1` [HD-331, (1R,2R)-methyl 2-((methylamino)methyl)-1-(naphthalen-2-yl)cyclopropanecarboxylate], the Log-P is on record as 2.82.

`CNCC1CC1(C(=O)OC)c1ccc2ccccc2c1` (racemic) [HD-287, Methyl 2-((methylamino)methyl)-1-(naphthalen-2-yl)cyclopropanecarboxylate hydrochloride]: the Log-P stood at 2.82.

`CNCC1CC1(C(=O)OC)c1ccccc1` (racemic) [HD-284, Methyl 2-((methylamino)methyl)-1-phenylcyclopropanecarboxylate]: the Log-P is listed as 1.65.

Compound `CNCC1CC1(C(=O)OC)c1ccc(OC)c(OC)c1` (racemic) [HD-289, Methyl 1-(3,4-dimethoxyphenyl)-2-((methylamino)methyl)cyclopropanecarboxylate hydrochloride] gave a Log-P of 1.31.

`CNCC1CC1(C(=O)OC)c1ccc(Cl)c(Cl)c1` (racemic) [HD-288, Methyl 1-(3,4-dichlorophenyl)-2-((methylamino)methyl)cyclopropanecarboxylate] yielded a Log-P of 2.95.

`CNC[C@@H]1C[C@]1(C(=O)OC)c1ccc(Br)cc1` [HD-325, (1R,2R)-methyl 1-(4-bromophenyl)-2-((methylamino)methyl)cyclopropanecarboxylate] registered a Log-P of 2.51.

Another data set deals with SNL rats. Nature of the data set: Mechanical allodynia (paw withdrawal threshold) in L5/L6 spinal nerve ligation (SNL) model of neuropathic pain. The class given is in vivo, rat. The settings on record: 3 μg i.t. The source says:
A 3 cm incision was made in the back using the iliac crests as a midpoint. An incision was then made in the underlying muscle, which was then separated by both sharp and blunt dissection to expose the left transverse process of the fifth lumbar vertebra. The transverse process was removed using bone microrongeurs, and the fifth lumbar nerve was exteriorized from underneath the spinal column using a small metal hook and ligated using 4.0 silk suture with sufficient pressure to cause the nerve to bulge on each side of the ligature. The sixth lumbar nerve was exteriorized from underneath the iliac bone at the sciatic notch and ligated in a similar manner. All muscle layers were sutured using 4.0 chromic gut, the skin was sutured using 4.0 nylon suture.
The animal is placed in a stereotaxic frame to immobilize the head under pentobarbital anesthesia. The animal's body is lifted and supported to render the spinal column straight and level and the animal's head is placed downward such the top of the skull forms a 90° angle with the spinal column. A small incision is placed at the back of the neck and the underlying muscles are blunt dissected to reveal the atlanto-occipital membrane. A small incision is placed in the atlanto-occipital membrane through which a 32 ga polyethylene catheter is inserted that is 8 cm in length. The catheter is anchored to the neck muscles with 4.0 silk suture and the exterior wounds are closed with 4.0 nylon suture.
All compounds were dissolved in 0.9% (wt/vol) saline, pH 7.4 and administered through the intrathecal catheter in a volume of 5 μl, followed by 15 μl of 0.9% saline to flush the catheter.
Paw withdrawal threshold was determined before and at selected time points following intrathecal drug administration using calibrated von Frey filaments. The animals are placed in elevated Plexiglas chambers with wire mesh floors and acclimated for a minimum of 30 minutes. Beginning with a filament calibrated to bend with a force of 2 g of pressure, the filament is applied to the plantar surface of the left hindpaw with sufficient force to bend slightly and left in place for 8 seconds or until the animal withdraws it's paw from the filament. In the absence of a paw withdrawal, the next highest calibrated filament is applied in a similar manner. In the presence of a paw withdrawal, the next lowest calibrated filament is applied. This up-down method continues until 4 responses are recorded after an initial positive response. The paw withdrawal threshold is calculated using Dixon non-parametric statistics.
The potency and efficacy of novel SNRT analogs in reversing mechanical hypersensitivity were determined in the L5/L6 spinal nerve ligation (SNL) model of neuropathic pain in rats. Compounds were administered intrathecal (i.t.) and the effect on paw withdrawal threshold was assessed at various time points following treatment.
`CNCC1CC1(C(=O)OC)c1ccc(Cl)c(Cl)c1` (racemic) [HD-288, Methyl 1-(3,4-dichlorophenyl)-2-((methylamino)methyl)cyclopropanecarboxylate] displayed a PWT after treatment of 24.9 ± 2.5 g.

Staying with this data set, now noted: before i.t. drug.
Regarding `CNCC1CC1(C(=O)OC)c1ccc(Cl)c(Cl)c1` (racemic) [HD-288, Methyl 1-(3,4-dichlorophenyl)-2-((methylamino)methyl)cyclopropanecarboxylate], the “PWT before treatment (baseline)” value came to 2.9 ± 0.4 g.

The same data set, now with this note: i.t. administration.
For the compound `CNCC1CC1(C(=O)OC)c1ccc(Cl)c(Cl)c1` (racemic) [HD-288, Methyl 1-(3,4-dichlorophenyl)-2-((methylamino)methyl)cyclopropanecarboxylate], the “anti-allodynic A50” value was found to be 0.6 ± 0.3 µg.

The same data set, now with this note: i.t., clonidine 10 μg, HD-283 30 μg, HD-286 and HD-288 up to 3 μg.
Consider `CNCC1CC1(C(=O)OC)c1ccc(Cl)c(Cl)c1` (racemic) [HD-288, Methyl 1-(3,4-dichlorophenyl)-2-((methylamino)methyl)cyclopropanecarboxylate], for which the “anti-allodynic effect (in words)” value is recorded as “significantly greater than clonidine”.

As for `Clc1cccc(Cl)c1N=C1NCCN1` [Clonidine, clonidine, reference compound], the “anti-allodynic effect (in words)” value was “reversed mechanical allodynia”.

Source of the values: patent publication US10207984B2, “Cyclopropyl derivatives and methods of use” (Emory University, priority 2011, dated 2019).
